Experimental data published in patent publication US6653318B1, “5-(E)-Bromovinyl uracil analogues and related pyrimidine nucleosides as anti-viral agents and methods of use” (Yale University, priority 1999, dated 2003).
Like-named read-outs stand apart in the source and are kept apart here.

Legend:
[1] = Cell cytotoxicity assay, cell growth; assay type: cell-based; details: human; CEM cells, three-day growth, 50% inhibition of cell growth
Procedure: (§1) Cell Cytotoxicity Assay. CEM cells are grown at 2.5×10^4 Cells per ml in RPM1 media supplemented with 20% dialyzed FBS. When cells double, they are seeded in 24-well plates at 1 ml/well. The tested drugs are added at various diluted dosage. After three-day growth at 37° C., 5% CO2, the cells are harvested and counted by using Coulter counter. Cytotoxicity IC50 is designated as the dosage that inhibits 50% of the cell growth compared to the untreated controls.

[2] = test system: HSV-1; assay: Virus growth inhibition assay, HSV plaque reduction; assay type: cell-based, Herpes Simplex virus
Procedure: (§2) Virus growth inhibition assay. Confluent virus permissive cells in 12-well plates are inoculated with the virus at 30˜40 pfu/well. After one-hour adsorption at 37° C., the inoculum is replaced with the medium containing 10% of dialyzed FBS and tested compounds at various dosages. Each dosage is duplicated. The infected cells are harvested at 72-hour postinfection. For HSV virus, the plaque reduction assay is performed to measure the virus growth. ID50 is designated as the dosage that inhibits 50% of plaque formation compared with untreated controls. For VZV and EBV, the infected cells are lysed by “freeze-thaw” and the lysate is treated with protease K and RNase. The DNA is then subjected to slot-blot as described previous (Yao, et al., Biochem. Pharmacol. 51: 941-947). The viral DNA is detected by hybridization with ^32P-labeled DNA fragment of viral specific gene. Autoradiographic results are quantitated by Personal Densitometer SI (Molecular Dynamics., Sunnyvale, Calif.). The same membrane is stripped and rehybridized with human β-actin gene fragment. The viral DNA amount is subsequently normalized by viral DNA/human actin DNA. The concentration of the tested compounds, which inhibit 50% of viral DNA synthesis compared to untreated control, is defined as IC50.

[3] = test system: VZV; assay: Virus growth inhibition assay, VZV viral DNA slot-blot; assay type: cell-based, Varicella-Zoster virus; details: read-out: IC50 VZV
Procedure: Virus growth inhibition assay. Confluent virus permissive cells in 12-well plates are inoculated with the virus at 30˜40 pfu/well. After one-hour adsorption at 37° C., the inoculum is replaced with the medium containing 10% of dialyzed FBS and tested compounds at various dosages. Each dosage is duplicated. The infected cells are harvested at 72-hour postinfection. For HSV virus, the plaque reduction assay is performed to measure the virus growth. […] For VZV and EBV, the infected cells are lysed by “freeze-thaw” and the lysate is treated with protease K and RNase. […] The viral DNA is detected by hybridization with ^32P-labeled DNA fragment of viral specific gene. Autoradiographic results are quantitated by Personal Densitometer SI (Molecular Dynamics., Sunnyvale, Calif.). The same membrane is stripped and rehybridized with human β-actin gene fragment. The viral DNA amount is subsequently normalized by viral DNA/human actin DNA.

[4] = test system: FU catabolite amino acids; assay: FU metabolites by 19F-NMR in mice after pretreatment with BV analog; assay type: in vivo; details: BDF1 mice, 20 mg/kg p.o. two hours before FU 200 mg/kg i.p., one hour after FU
Procedure: Two hours after injection, 5-Flurouracil (FU) at a concentration of 200 mg/kg was administered i.p. […] Consequently, the coadministration of any one or more of the β-L nucleoside compounds along with FU or an FU produrg in the treatment of cancer to enhance the effectiveness of these agents is meritorious and unexpected.

[5] = in humans; generally ranging from about 20-30 minutes; cited from earlier work
[6] = test system: CEM cells; assay: Cell cytotoxicity assay, cell growth; assay type: cell-based; details: three-day growth, 50% inhibition of cell growth
Procedure: as §1

[7] = test system: EBV; assay: Anti-EBV activity, EBV DNA slot blot in H1 cells; assay type: cell-based, Epstein Barr virus; details: concentration that inhibits 50% of virus growth, 5 days
Procedure: as §2
A high yield of EBV producing cell line H1 derived from human P3HR1 cells was used in this study. Cells were cultured in RPMI medium supplemented with 10% dialyzed fetal bovine serum and 100 μg/ml Kanamycin and were grown at 37° C. in a humidified incubator containing 5% CO2.
H1 cells were maintained in logarithmic phase of growth for two days prior to the initiation of treatment. The H1 cells were seeded in 24 well plates at the density of 2×10^5 cells per well in 2 ml of fresh medium with or without drug treatment and were incubated at 37° C. for 5 days. Following the period of drug treatment the cells were pelleted and used to determine the inhibitory effect of drug on EBV DNA by slot blot assay.
A total of 4×10^5 H1 cells treated with the various nucleoside analogs (as set forth below) were lysed in 400 μl of 10 mM Tris-HCl (pH 7.5) solution by freezing and thawing 3 times. The cell lysate was treated with RNAase A (at a final concentration of 50 μg/ml) at 37° C. for 30 minutes and then with proteinase K (at a final concentration of 100 μg/ml) at 55° C. for 2 hr. The samples were denatured by adjusting the final concentration to 0.4N NaOH/10 mM EDTA at pH 8.2. After heating for 10 minutes in a water bath at 100° C., the samples were spotted onto positively charged nylon membrane using a manifold. […] The amount of EBV DNA in treated H1 cells was determined according to the ratio of EBV DNA to Alu DNA in comparison with non-treatment control H1 cells. […]

[8] = Human alphaherpesvirus 1, concentration that inhibits 50% of virus growth
[9] = Human alphaherpesvirus 3, concentration that inhibits 50% of virus growth, viral DNA, 72-hour postinfection
[10] = concentration that inhibits 50% of virus growth, viral DNA, 72-hour postinfection
[11] = concentration that inhibits 50% of virus growth
[12] = human gammaherpesvirus 4, 120 h

Compound | IC50 [3, 9] [µM] | IC50 at 3 days [1] [µM] | IC50 [2, 8] [µM] | further results
Nc1nc2c(ncn2COCCO)c(=O)[nH]1 [Acyclovir, reference compound] |  | > 100 | 13.6 | 
O=c1[nH]c(=O)n([C@H]2C[C@H](O)[C@@H](CO)O2)cc1/C=C/Br [D-BVDU, (E)-5-(2-bromovinyl)-2′-deoxyuridine, reference compound] |  | > 100 |  | IC50 ([3]; Human alphaherpesvirus 3, 72 h): 0.05 µM
O=c1[nH]c(=O)n([C@@H]2CO[C@@H](CO)O2)cc1/C=C/Br [D-α-BVOddU, (2R,5S)-E-5-(2-Bromovinyl)-1-[2-(hydroxymethyl)-1,3-dioxolan-5-yl]uracil] | > 30 | > 100 | > 50 | 
O=c1[nH]c(=O)n([C@H]2CO[C@@H](CO)O2)cc1/C=C/Br [D-β-BVOddU, (2R,5R)-E-5-(2-Bromovinyl)-1-[2-(hydroxymethyl)-1,3-dioxolan-5-yl]uracil] | 26 | > 100 | > 50 | 
O=c1[nH]cc(F)c(=O)[nH]1 [FU, 5-fluorouracil] |  |  |  | half-life of FU [5]: approximately 25 minutes
O=c1[nH]c(=O)n([C@@H]2C[C@@H](O)[C@H](CO)O2)cc1/C=C/Br [L-BVDU, E-5-(2-Bromovinyl)-2′-deoxy-L-uridine] |  |  |  | IC50 [6]: > 100 µM; IC50 [3, 10]: > 100 µM
O=c1[nH]c(=O)n([C@@H]2CO[C@H](CO)O2)cc1Br [L-BrOddU, reference compound] |  |  |  | IC50 [7]: 0.2 µM; IC50 [6]: > 100 µM; IC50 [3, 10]: > 30 µM; IC50 [2, 11]: > 100 µM
O=c1[nH]c(=O)n([C@@H]2CO[C@H](CO)O2)cc1I [L-IOddU, reference compound] |  |  |  | IC50 [7]: 0.1 µM; IC50 [6]: > 100 µM; IC50 [3, 10]: 17 µM; IC50 [2, 11]: 70 µM
O=c1[nH]c(=O)n([C@H]2CO[C@H](CO)O2)cc1/C=C/Br [L-α-BVOddU, (2S,5R)-E-5-(2-Bromovinyl)-1-[2-(hydroxymethyl)-1,3-dioxolan-5-yl]uracil] | > 30 | > 100 | > 50 | 
O=c1[nH]c(=O)n([C@@H]2CO[C@H](CO)O2)cc1/C=C/Br [L-β-BVOddU, (2S,5S)-E-5-(2-Bromovinyl)-1-[2-(hydroxymethyl)-1,3-dioxolan-5-yl]uracil] | 0.07 | > 100 | 36 | inhibition of FU catabolite amino acids [4]: ~100%
Nc1nc(O)c2ncn(CCC(CO)CO)c2n1 [Pencyclovir, reference compound] |  |  |  | IC50 [6]: > 100 µM; IC50 [3, 10]: 0.14 µM; IC50 [2, 11]: 18 µM

Now from value to compound, other results behind:

IC50 [3, 9] [µM] | Compound | IC50 at 3 days [1] [µM] | IC50 [2, 8] [µM] | further results
0.0007 | O=c1[nH]c(=O)n([C@@H]2O[C@H](CO)[C@@H](O)[C@@H]2O)cc1/C=C/Br [D-ara-BVU, 1-β-D-arabinofuranosyl-(E)-5-(2-bromovinyl)uracil, reference compound] | > 100 |  | effect on FU catabolite amino acids / break-down of FU (in words) [4]: decreased from catabolite amino acids
> 30 | O=c1[nH]c(=O)n([C@H]2O[C@@H](CO)[C@H](O)[C@@H]2F)cc1/C=C/Br [L-BV2′F-dU, E-5-(2-Bromovinyl)-1-(2-deoxy-2-fluoro-β-L-ribofuranosyl) uracil] | > 100 | > 50 | 
> 30 | O=c1[nH]c(=O)n([C@H]2CO[C@H](CO)O2)cc1/C=C/Cl [L-α-ClVOddU, (2S,5R)-E-5-(2-Chlorovinyl)-1-[2-(hydroxymethyl)-1,3-dioxolan-5-yl]uracil] | > 100 | > 50 | melting point: 101 to 102 °C
> 30 | O=c1[nH]c(=O)n([C@H]2CO[C@H](CO)O2)cc1/C=C/I [L-α-IVOddU, (2S,5R)-E-5-(2-Iodovinyl)-1-[2-(hydroxymethyl)-1,3-dioxolan-5-yl]uracil] | > 100 | > 50 | melting point: 60 °C (dec.)
12.5 | O=c1[nH]c(=O)n([C@@H]2CS[C@H](CO)O2)cc1/C=C/Br [L-β-BVSddU, (2R,5S)-E-5-(2-Bromovinyl)-1-(2-hydroxymethyl-1,3-oxathiolan-5-yl)uracil] | > 100 |  | IC50 [7, 12]: > 50 µM
0.15 | O=c1[nH]c(=O)n([C@@H]2CO[C@H](CO)O2)cc1/C=C/Cl [L-β-ClVOdd, (2S,5S)-E-5-(2-Chlorovinyl)-1-[2-(hydroxymethyl)-1,3-dioxolan-5-yl]uracil] | > 100 | 18 | 
0.035 | O=c1[nH]c(=O)n([C@@H]2CO[C@H](CO)O2)cc1/C=C/I [L-β-IVOddU, (2S,5S)-E-5-(2-Iodovinyl)-1-[2-(hydroxymethyl)-1,3-dioxolan-5-yl]uracil] | > 100 | 33 | IC50 [7, 12]: 4.1 µM; melting point: 162 °C (dec.)
